Patent US9132084B2, “Methods for administration and formulations for the treatment of regional adipose tissue” (NEOTHETICS, INC., priority 2009, dated 2015)

Experiment: Plasma pharmacokinetics following a single intravenous and subcutaneous injection of a combination of formoterol and budesonide
Details: for AUC(0-inf): AUCinf; for bioavailability: F (bioavailability); for concentration at 0.0333 hr: female 2-0623, 0.0333 hr; for concentration at 0.0833 hr: female 2-0623, 0.0833 hr; for concentration at 0.167 hr: female 2-0623, 0.167 hr; for concentration at 0.333 hr: female 2-0623, 0.333 hr; for concentration at 0.5 hr: female 2-0623, 0.500 hr; for concentration at 0.75 hr: female 2-0623, 0.750 hr; for concentration at 1 hr: female 2-0623, 1.00 hr; for concentration at 2 hr: female 2-0623, 2.00 hr; for concentration at 4 hr: female 2-0623, 4.00 hr; for concentration at 8 hr: female 2-0623, 8.00 hr
Method: Formoterol fumarate dehydrate and budesonide were formulated in 2% PEG-400 in saline. 1 male and 1 female non-naive Gottingen minipigs (8 to 12 kg upon receipt per protocol) were utilized. The animals were housed individually.
Each minipig received a single IV injection of the combined formoterol and budesonide formulation followed by testing of the SC doses. Each dose was separated by at least a 3-day washout period. The IV dose was administered by slow bolus (1 minute; 0.017 hr) into the marginal ear vein, whereas the first SC dose was administered as a bolus injection along the back (neck-region) where there was a longitudinal fat depot. The second SC dose was distributed in 5 separate proximal SC injections separated by approximately 2 cm. Blood samples (approximately 4 mL) were collected via the branchiocephalic plexus at pre-dose and at 2, 5, 10, 20, 30 and 45 minutes, and at 1, 2, 4, 8 and 24 hr post-dose. Blood samples were placed in tubes containing K2-EDTA as the anticoagulant. Samples were processed to plasma by centrifugation and stored frozen at approximately −70° C. (+/−15° C.) until shipment for analysis.
Plasma samples were analyzed for formoterol and budesonide using a qualified liquid chromatography/mass spectrometry/mass mass spectrometry (LC/MS/MS) method. The lower limit of quantitation (LLOQ) was 1.00 pg/mL for formoterol and 25.0 pg/mL for budesonide.
Non-compartmental pharmacokinetic parameters were calculated using WinNonlin 5.2 software, NCA model 202, IV infusion input for the IV data and NCA model 200, extravascular input for the SC data. Individual plasma concentrations for each animal were used in the calculation of pharmacokinetic parameters. Nominal collection times and doses were used in the calculations. The area under the plasma concentration-time curve (AUC) was calculated using linear trapezoidal approximation (linear/log interpolation). Concentration values below the assay limit of quantitation were set to zero for calculations. The maximum plasma concentration (Cmax) and the time of its occurrence (Tmax) were verified by inspection. The half-life (t1/2) values were calculated using the last 3 plasma concentrations with nonzero values, if data permitted.

[1] = female, Gottingen, minipig, in vivo, formoterol 0.4 μg/kg SC1 single site, combination, female 2-0623
[2] = female, Gottingen, minipig, in vivo, formoterol 0.4 μg/kg SC5 (5 sites), combination, female 2-0623
[3] = female, Gottingen, minipig, in vivo, Plasma concentration of formoterol, SC1 0.4 μg/kg, combination
[4] = female, Gottingen, minipig, in vivo, Plasma concentration of formoterol, SC5 0.4 μg/kg, combination
[5] = female, Gottingen, minipig, in vivo, iv, 0.4 ug/kg
[6] = female, Gottingen, minipig, in vivo, iv, 0.4 ug/kg, formoterol 0.4 μg/kg IV in combination with budesonide, female 2-0623
[7] = female, Gottingen, minipig, in vivo, iv, Plasma concentration of formoterol, IV 0.4 μg/kg, combination

Compound: COc1ccc(CC(C)NCC(O)c2ccc(O)c(NC=O)c2)cc1 (centres unmarked) [Formoterol, formoterol]
- Plasma concentration of formoterol (IV 0.4 μg/kg, combination, female 2-0623, 24.0 hr): <LLOQ (LLOQ = 1.00 pg/mL for formoterol)
- Plasma concentration of formoterol (IV 0.4 μg/kg, combination, male 1-0771, 0 hr): <LLOQ (LLOQ = 1.00 pg/mL for formoterol)
- Plasma concentration of formoterol (IV 0.4 μg/kg, combination, male 1-0771, 24.0 hr): <LLOQ (LLOQ = 1.00 pg/mL for formoterol)
- Plasma concentration of formoterol (SC1 0.4 μg/kg, combination, female 2-0623, 0 hr): <LLOQ (LLOQ = 1.00 pg/mL for formoterol)
- Plasma concentration of formoterol (SC1 0.4 μg/kg, combination, female 2-0623, 24.0 hr): <LLOQ (LLOQ = 1.00 pg/mL for formoterol)
- Plasma concentration of formoterol (SC5 0.4 μg/kg, combination, female 2-0623, 0 hr): <LLOQ (LLOQ = 1.00 pg/mL for formoterol)
- Plasma concentration of formoterol (SC5 0.4 μg/kg, combination, male 1-0771, 0 hr): <LLOQ (LLOQ = 1.00 pg/mL for formoterol)
- AUC(0-inf) [1]: 0.378 ng·h/mL
- AUC(0-inf) [2]: 0.577 ng·h/mL
- Cmax [1]: 0.284 ng/mL
- Cmax [2]: 0.256 ng/mL
- bioavailability [1]: 115%
- bioavailability [2]: 176%
- concentration at 0.0333 hr [3]: 0.169 ng/mL
- concentration at 0.0833 hr [3]: 0.284 ng/mL
- concentration at 0.167 hr [3]: 0.237 ng/mL
- concentration at 0.333 hr [3]: 0.156 ng/mL
- concentration at 0.5 hr [3]: 0.127 ng/mL
- concentration at 0.75 hr [3]: 0.0789 ng/mL
- concentration at 1 hr [3]: 0.0678 ng/mL
- concentration at 2 hr [3]: 0.0512 ng/mL
- concentration at 4 hr [3]: 0.0285 ng/mL
- concentration at 8 hr [3]: 0.00858 ng/mL
- concentration at 0.0333 hr [4]: 0.0946 ng/mL
- concentration at 0.0833 hr [4]: 0.256 ng/mL
- concentration at 0.167 hr [4]: 0.178 ng/mL
- concentration at 0.333 hr [4]: 0.131 ng/mL
- concentration at 0.5 hr [4]: 0.1 ng/mL
- concentration at 0.75 hr [4]: 0.0826 ng/mL
- concentration at 1 hr [4]: 0.0628 ng/mL
- concentration at 2 hr [4]: 0.0444 ng/mL
- concentration at 4 hr [4]: 0.026 ng/mL
- concentration at 8 hr [4]: 0.0103 ng/mL
- concentration at 24 hr (female, Gottingen, minipig, in vivo, Plasma concentration of formoterol, SC5 0.4 μg/kg, combination, female 2-0623, 24.0 hr): 0.00695 ng/mL
- Tmax [1]: 5 min
- Tmax [2]: 5 min
- Vd [5]: 3.17 L/kg
- clearance [5]: 20.3 mL/min/kg
- AUC(0-inf) [6]: 0.328 ng·h/mL
- Cmax [6]: 0.9 ng/mL
- Tmax [6]: 2 min
- half-life (female, Gottingen, minipig, in vivo, iv, 0.4 ug/kg, t1/2, formoterol 0.4 μg/kg IV in combination with budesonide, female 2-0623): 2.86 h
- concentration at 0 hr (female, Gottingen, minipig, in vivo, iv, Plasma concentration of formoterol, IV 0.4 μg/kg, combination, female 2-0623, 0 hr): 0.00353 ng/mL
- concentration at 0.0333 hr [7]: 0.9 ng/mL
- concentration at 0.0833 hr [7]: 0.204 ng/mL
- concentration at 0.167 hr [7]: 0.11 ng/mL
- concentration at 0.333 hr [7]: 0.0735 ng/mL
- concentration at 0.5 hr [7]: 0.0984 ng/mL
- concentration at 0.75 hr [7]: 0.0614 ng/mL
- concentration at 1 hr [7]: 0.0454 ng/mL
- concentration at 2 hr [7]: 0.0313 ng/mL
- concentration at 4 hr [7]: 0.0184 ng/mL
- concentration at 8 hr [7]: 0.00726 ng/mL
- half-life (female, Gottingen, minipig, in vivo, t1/2, formoterol 0.4 μg/kg SC1 single site, combination, female 2-0623): 2.33 h
- half-life (female, Gottingen, minipig, in vivo, t1/2, formoterol 0.4 μg/kg SC5 (5 sites), combination, female 2-0623): 12.8 h
- tlast (formoterol 0.4 μg/kg IV in combination with budesonide, female 2-0623): 8.00 h
